Assay results published in patent US8507538B2, “Selective heterocyclic sphingosine 1 phosphate receptor modulators” (Receptos, Inc., priority 2009, dated 2013).

molecular target: S1P1/EDG1 (Homo sapiens, UniProt P21453); assay: S1P1 CRE-bla CHOK1 reporter assay (inhibition of Forskolin induced cAMP); type: cell-based; conditions: agonist activity range, Table 2; read-out: S1P1 ACTIVITY
Method in brief: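 Stable CRE-bla CHO-K1 clone expressing human S1P1, serum-starved (0.5% stripped serum) 18 h, then treated with compound (10-point curve) plus 2 μM forskolin for 4 h at 37 °C. β-lactamase FRET ratio (458/522 nm) read after 2 h substrate loading; EC50 for inhibition of forskolin-induced cAMP by non-linear regression.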

Sequence of S1P1/EDG1 (P21453 whole entry): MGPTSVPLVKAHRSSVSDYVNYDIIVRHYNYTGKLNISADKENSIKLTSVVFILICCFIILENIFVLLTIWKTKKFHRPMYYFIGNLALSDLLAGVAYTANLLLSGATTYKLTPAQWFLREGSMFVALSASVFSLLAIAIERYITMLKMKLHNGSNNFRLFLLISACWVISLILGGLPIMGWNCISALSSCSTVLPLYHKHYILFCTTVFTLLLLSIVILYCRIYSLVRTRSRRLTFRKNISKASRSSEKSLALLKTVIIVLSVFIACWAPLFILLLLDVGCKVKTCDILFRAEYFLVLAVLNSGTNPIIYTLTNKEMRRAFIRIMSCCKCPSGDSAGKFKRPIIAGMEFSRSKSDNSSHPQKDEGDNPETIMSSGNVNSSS

Compound | EC50 [nM]
CC(C)Oc1ccc(-c2ncc(-c3cccc4c3CC[C@@H]4NS(=O)(=O)CCN3CCC(O)CC3)s2)cc1C#N [Compound 146] | 0.5 to 5
COC(=O)CC1CCN(CCS(=O)(=O)N[C@H]2CCc3c(-c4cnc(-c5ccc(OC(C)C)c(C#N)c5)s4)cccc32)CC1 [Compound 147] | 0.5 to 5
CC(C)Oc1ccc(-c2ncc(-c3cccc4c3CC[C@@H]4NS(=O)(=O)CCN3CCC(CC(=O)O)CC3)s2)cc1C#N [Compound 148] | 0.5 to 5
CC(C)Oc1ccc(-c2ncc(-c3cccc4c3CC[C@@H]4NS(=O)(=O)CCN3CCC(CO)CC3)s2)cc1C#N [Compound 149] | 0.5 to 5
CC(C)Oc1ccc(-c2ncc(-c3cccc4c3CC[C@@H]4NS(=O)(=O)CCN3CC(O)C3)s2)cc1C#N [Compound 150] | 0.5 to 5
CC(C)Oc1ccc(-c2ncc(-c3cccc4c3CC[C@@H]4NS(=O)(=O)CCN3CCNCC3)s2)cc1C#N [Compound 151] | > 5
CC(C)Oc1ccc(-c2ncc(-c3cccc4c3CC[C@@H]4NS(=O)(=O)CCN3CCC(N(C)C)CC3)s2)cc1C#N [Compound 153] | > 5
COC(=O)CS(=O)(=O)N[C@H]1CCc2c(-c3cnc(-c4ccc(OC(C)C)c(C#N)c4)s3)cccc21 [Compound 155, (S)-methyl 2-(N-(4-(2-(3-cyano-4-isopropoxyphenyl)thiazol-5-yl)-2,3-dihydro-1H-inden-1-yl)sulfamoyl)acetate] | 0.5 to 5
COC(=O)CCS(=O)(=O)N[C@H]1CCc2c(-c3cnc(-c4ccc(OC(C)C)c(C#N)c4)s3)cccc21 [Compound 156] | 0.05 to 0.5
CC(C)Oc1ccc(-c2ncc(-c3cccc4c3CC[C@@H]4NS(=O)(=O)CC(=O)O)s2)cc1C#N [Compound 159, (S)-2-(N-(4-(2-(3-cyano-4-isopropoxyphenyl)thiazol-5-yl)-2,3-dihydro-1H-inden-1-yl)sulfamoyl)acetic acid] | 0.05 to 0.5
CC(C)Oc1ccc(-c2ncc(-c3cccc4c3CC[C@@H]4NS(=O)(=O)CCC(=O)O)s2)cc1C#N [Compound 160] | < 0.05
CC(C)Oc1ccc(-c2ncc(-c3cccc4c3CC[C@@H]4NS(=O)(=O)CCC(=O)O)s2)cc1C#N [Compound 161] | 0.05 to 0.5
CC(C)Oc1ccc(-c2ncc(-c3cccc4c3CC[C@@H]4NS(=O)(=O)CC(=O)N3CC(O)C3)s2)cc1C#N [Compound 163] | 0.05 to 0.5
CC(C)Oc1ccc(-c2ncc(-c3cccc4c3CC[C@@H]4NS(=O)(=O)CCO)s2)cc1C#N [Compound 165, (S)-N-(4-(2-(3-cyano-4-isopropoxyphenyl)thiazol-5-yl)-2,3-dihydro-1H-inden-1-yl)-2-hydroxyethanesulfonamide] | 0.5 to 5
CC(C)Oc1ccc(-c2ncc(-c3cccc4c3CC[C@@H]4NS(N)(=O)=O)s2)cc1C#N [Compound 167, (S)-N-(4-(2-(3-cyano-4-isopropoxyphenyl)thiazol-5-yl)-2,3-dihydro-1H -inden-1-yl)sulfamide] | 0.05 to 0.5
CC(C)Oc1ccc(-c2ncc(-c3cccc4c3CC[C@@H]4NC(=O)N(C)C)s2)cc1C#N [Compound 168] | 0.05 to 0.5
CC(C)Oc1ccc(-c2ncc(-c3cccc4c3CC[C@@H]4NC(=O)N(C)C)s2)cc1C#N [Compound 169] | 0.5 to 5
CC(C)Oc1ccc(-c2ncc(-c3cccc4c3CC[C@@H]4NC(=O)N3CC(O)C3)s2)cc1C#N [Compound 170] | 0.5 to 5
CC(C)Oc1ccc(-c2ncc(-c3cccc4c3CC[C@@H]4NC(=O)N3CC(O)C3)s2)cc1C#N [Compound 171] | 0.05 to 0.5
CC(C)Oc1ccc(-c2ncc(-c3cccc4c3CC[C@@H]4NC(=O)N3CCCC3)s2)cc1C#N [Compound 173, (S)-N-(4-(2-(3-cyano-4-isopropoxyphenyl)thiazol-5-yl)-2,3-dihydro-1H-inden-1-yl)pyrrolidine-1-carboxamide] | 0.5 to 5
CC(C)Oc1ccc(-c2ncc(-c3cccc4c3CC[C@@H]4NC(=O)N3CC[C@@H](O)C3)s2)cc1C#N [Compound 174] | 0.05 to 0.5

Compound | EC50 [nM]
CC(C)Oc1ccc(-c2ncc(-c3cccc4c3CC[C@@H]4NC(=O)N3CC[C@H](O)C3)s2)cc1C#N [Compound 175] | 0.5 to 5
CC(C)Oc1ccc(-c2ncc(-c3cccc4c3CC[C@@H]4NC(=O)N3CC[C@@H](O)C3)s2)cc1C#N [Compound 176] | 0.5 to 5
CC(C)Oc1ccc(-c2ncc(-c3cccc4c3CC[C@@H]4NC(=O)N3CC[C@H](O)C3)s2)cc1C#N [Compound 177] | 0.05 to 0.5
CC(C)Oc1ccc(-c2ncc(-c3cccc4c3CC[C@@H]4NC(=O)N3CC[C@@H](N)C3)s2)cc1C#N [Compound 178] | 0.05 to 0.5
CC(C)Oc1ccc(-c2ncc(-c3cccc4c3CC[C@@H]4NC(=O)N3CC[C@H](N)C3)s2)cc1C#N [Compound 179] | 0.5 to 5
CC(C)Oc1ccc(-c2ncc(-c3cccc4c3CC[C@@H]4NC(=O)N3CC[C@H](N)C3)s2)cc1C#N [Compound 180] | > 5
CC(C)Oc1ccc(-c2ncc(-c3cccc4c3CC[C@@H]4NC(=O)N3CC[C@@H](N)C3)s2)cc1C#N [Compound 181] | > 5
CC(C)Oc1ccc(-c2ncc(-c3cccc4c3CC[C@@H]4NC(=O)N3CC[C@H](N(C)C)C3)s2)cc1C#N [Compound 182] | 0.5 to 5
CC(C)Oc1ccc(-c2ncc(-c3cccc4c3CC[C@@H]4NC(=O)N3CC[C@@H](N(C)C)C3)s2)cc1C#N [Compound 183] | 0.5 to 5
CC(C)Oc1ccc(-c2ncc(-c3cccc4c3CC[C@@H]4NC(=O)N3CC[C@H](N(C)C)C3)s2)cc1C#N [Compound 184] | > 5
CC(C)Oc1ccc(-c2ncc(-c3cccc4c3CC[C@@H]4NC(=O)N3CC[C@@H](N(C)C)C3)s2)cc1C#N [Compound 185] | > 5
CC(C)Oc1ccc(-c2ncc(-c3cccc4c3CC[C@@H]4NC(=O)N3CCOCC3)s2)cc1C#N [Compound 187] | 0.5 to 5
CC(C)Oc1ccc(-c2ncc(-c3cccc4c3CC[C@@H]4NC(=O)N3CCNCC3)s2)cc1C#N [Compound 188] | 0.5 to 5
CC(C)Oc1ccc(-c2ncc(-c3cccc4c3CC[C@@H]4NC(=O)N3CCNCC3)s2)cc1C#N [Compound 189] | > 5
CC(C)Oc1ccc(-c2ncc(-c3cccc4c3CC[C@@H]4NC(=O)N3CCN(C)CC3)s2)cc1C#N [Compound 190] | 0.5 to 5
CC(C)Oc1ccc(-c2ncc(-c3cccc4c3CC[C@@H]4NC(=O)N3CCN(C)CC3)s2)cc1C#N [Compound 191] | > 5
CC(C)Oc1ccc(-c2ncc(-c3cccc4c3CC[C@@H]4NC(=O)N3CCC(N(C)C)CC3)s2)cc1C#N [Compound 192] | > 5
CC(C)Oc1ccc(-c2ncc(-c3cccc4c3CC[C@@H]4NC(=O)N3CCC(CO)CC3)s2)cc1C#N [Compound 194] | 0.5 to 5
CC(C)Oc1ccc(-c2ncc(-c3cccc4c3CC[C@@H]4NC(=O)N3CCC[C@H](O)C3)s2)cc1C#N [Compound 196] | 0.5 to 5
CC(C)Oc1ccc(-c2ncc(-c3cccc4c3CC[C@@H]4NC(=O)N3CCC[C@H](O)C3)s2)cc1C#N [Compound 197] | 0.5 to 5
CC(C)Oc1ccc(-c2ncc(-c3cccc4c3CC[C@@H]4NC(=O)N3CCC[C@H](O)C3)s2)cc1C#N [Compound 198] | 0.05 to 0.5

Compound | EC50 [nM]
CC(C)Oc1ccc(-c2ncc(-c3cccc4c3CC[C@@H]4NC(=O)N3CCC[C@H](O)C3)s2)cc1C#N [Compound 199] | 0.05 to 0.5
CC(C)Oc1ccc(-c2ncc(-c3cccc4c3CC[C@@H]4NC(=O)N3CCC(CC(=O)O)CC3)s2)cc1C#N [Compound 200] | 0.05 to 0.5
CC(C)Oc1ccc(-c2ncc(-c3cccc4c3CC[C@@H]4NC(=O)N3CCC(O)CC3)s2)cc1C#N [Compound 202] | 0.5 to 5
COC(=O)CC1CCN(C(=O)N[C@H]2CCc3c(-c4cnc(-c5ccc(OC(C)C)c(C#N)c5)s4)cccc32)CC1 [Compound 204] | 0.5 to 5
CC(C)Oc1ccc(-c2ncc(-c3cccc4c3CC[C@@H]4N3CCC3)s2)cc1C#N [Compound 206] | 0.05 to 0.5
CC(C)Oc1ccc(-c2ncc(-c3cccc4c3CCC4N3CC(O)C3)s2)cc1C#N (stereo not shown) [Compound 207, 5-(5-(1-(3-hydroxyazetidin-1-yl)-2,3-dihydro-1H-inden-4-yl)thiazol-2-yl)-2-isopropoxybenzonitrile] | 0.5 to 5
CC(C)Oc1ccc(-c2ncc(-c3cccc4c3CCC4N3CCCC3)s2)cc1C#N (stereo not shown) [Compound 208] | 0.5 to 5
CC(C)Oc1ccc(-c2ncc(-c3cccc4c3CCC4N3CC[C@@H](O)C3)s2)cc1C#N (stereo partly shown) [Compound 209] | 0.5 to 5
CC(C)Oc1ccc(-c2ncc(-c3cccc4c3CCC4N3CC[C@H](O)C3)s2)cc1C#N (stereo partly shown) [Compound 210] | 0.5 to 5
CC(C)Oc1ccc(-c2ncc(-c3cccc4c3CCC4N3CC[C@H](N)C3)s2)cc1C#N (stereo partly shown) [Compound 211] | 0.5 to 5
CC(C)Oc1ccc(-c2ncc(-c3cccc4c3CCC4N3CC[C@@H](N)C3)s2)cc1C#N (stereo partly shown) [Compound 212] | > 5
CC(C)Oc1ccc(-c2ncc(-c3cccc4c3CCC4N3CCCCC3)s2)cc1C#N (stereo not shown) [Compound 213] | 0.5 to 5
CC(C)Oc1ccc(-c2ncc(-c3cccc4c3CCC4N3CCOCC3)s2)cc1C#N (stereo not shown) [Compound 214] | 0.5 to 5
CC(C)Oc1ccc(-c2ncc(-c3cccc4c3CCC4N3CCNCC3)s2)cc1C#N (stereo not shown) [Compound 215] | 0.5 to 5
CC(C)Oc1ccc(-c2ncc(-c3cccc4c3CCC4N3CCN(C)CC3)s2)cc1C#N (stereo not shown) [Compound 216] | 0.5 to 5
CC(C)Oc1ccc(-c2ncc(-c3cccc4c3CCC4NC3CCOCC3)s2)cc1C#N (stereo not shown) [Compound 217] | > 5
CC(C)Oc1ccc(-c2ncc(-c3cccc4c3CCC4NC3CCCCC3)s2)cc1C#N (stereo not shown) [Compound 218] | > 5
CNS(=O)(=O)CCNC1CCc2c(-c3cnc(-c4ccc(OC(C)C)c(C#N)c4)s3)cccc21 (stereo not shown) [Compound 219] | 0.05 to 0.5
CC(C)Oc1ccc(-c2ncc(-c3cccc4c3CC[C@@H]4NCCS(C)(=O)=O)s2)cc1C#N [Compound 221, (S)-2-isopropoxy-5-(5-(1-((2-(methylsulfonyl)ethyl)amino)-2,3-dihydro-1H-inden-4-yl)thiazol-2-yl)benzonitrile] | 0.05 to 0.5
